According to US20240217982A1, “KRAS INHIBITORS” (Bristol-Myers Squibb Company, priority 2021, published 2024):

Columns and labels:
KRAS G12D [1] = biological target: T1, KRAS G12D (Homo sapiens (Human), UniProt P01116, G12D); assay: KRAS G12D Nucleotide Exchange Assay (HTRF); format: biochemical; conditions: recombinant GDP-loaded KRAS G12D (20 nM), BIODIPY-labeled GDP (400 nM), recombinant SOS (10 nM), HTRF signal
Procedure: Recombinant GDP-loaded KRAS G12D (20 nM) was treated with compound at room temperature for 20 minutes in assay buffer (10 mM Hepes pH 7.4, 150 mM NaCl, 5 mM MgCl2, 0.0025% Igepal-CA630, 0.05% BSA, 1 mM DTT, 0.5 nM SA-Tb). BIODIPY-labeled GDP (400 nM) and recombinant SOS (10 nM) were added, and the reaction was incubated for 30 minutes.

KRAS G12D [2] = biological target: T1, KRAS G12D; assay: KRAS G12D RAF Disruption Assay (HTRF); format: biochemical; conditions: recombinant GMPPNP-loaded KRAS G12D (5 nM), GST-RAF1 RBD (9 nM), HTRF signal
Procedure: Recombinant GMPPNP-loaded KRAS G12D (5 nM) was treated with compound at room temperature for 20 minutes in assay buffer (50 mM Tris pH 7.5, 100 mM NaCl, 1 mM MgCl2, 1 mM DTT, 100 ug/mL BSA).

T1 sequence (P01116-2 other isoform, or with tags, fused parts or gaps G12D): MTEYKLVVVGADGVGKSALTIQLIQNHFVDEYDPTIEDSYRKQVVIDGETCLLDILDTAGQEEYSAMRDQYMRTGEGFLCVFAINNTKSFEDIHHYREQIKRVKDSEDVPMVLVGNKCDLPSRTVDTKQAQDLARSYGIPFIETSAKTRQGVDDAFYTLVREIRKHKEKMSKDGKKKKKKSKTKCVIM

SMILES	KRASG12D Nucleotide Exchange Assay (IC50, µM) (KRAS G12D [1])	KRASG12D RAF Disruption Assay (IC50, µM) (KRAS G12D [2])
CN1CCC[C@@]2(COc3nc(N4CC[C@H]5CC[C@@H](C4)N5)c4ccc(-c5cc(O)cc6cccc(F)c56)c(F)c4n3)CCC[C@@H]12 [Example 9-2, 4-(2-{[(4aS,7aR)-1-methyl-octahydro-1H-cyclopenta[b]pyridin-4a-yl]methoxy}-4-[(1S,6R)-3,9-diazabicyclo[4.2.1]nonan-3-yl]-8-fluoroquinazolin-7-yl)-5-fluoronaphthalen-2-ol]	0.03 µM	2.0 µM
CO[C@@H]1C[C@@H](COc2nc(N3CC[C@H]4CC[C@@H](C3)N4)c3cc(Cl)c(-c4nc(N)cc(C)c4C(F)(F)F)c(F)c3n2)N(C)C1 [Example 4-4, 6-{6-chloro-4-[(1S,6R)-3,9-diazabicyclo[4.2.1]nonan-3-yl]-8-fluoro-2-{[(2S,4R)-4-methoxy-1-methylpyrrolidin-2-yl]methoxy}quinazolin-7-yl}-4-methyl-5-(trifluoromethyl)pyridin-2-amine]	0.010 µM	1.81 µM
Oc1cc(-c2c(Cl)cc3c(N4CC[C@H]5CC[C@@H](C4)N5)nc(OC[C@]45CCCN4C[C@H](F)C5)nc3c2F)c2ccccc2c1 [Example 7, 4-(2-{[(2R,7aR)-2-fluoro-hexahydro-1H-pyrrolizin-7a-yl]methoxy}-6-chloro-4-[(1S,6R)-3,9-diazabicyclo[4.2.1]nonan-3-yl]-8-fluoroquinazolin-7-yl)naphthalen-2-ol]	<0.002 µM	0.48 µM
Cc1cc(N)nc(-c2ccc3c(N4CC[C@H]5CC[C@@H](C4)N5)nc(OCC45CCCN4CC(F)(F)C5)nc3c2F)c1C(F)(F)F (stereo partly drawn) [Example 12-4, 6-{4-[(1S,6R)-3,9-diazabicyclo[4.2.1]nonan-3-yl]-2-[(2,2-difluoro-hexahydro-1H-pyrrolizin-7a-yl)methoxy]-8-fluoroquinazolin-7-yl}-4-methyl-5-(trifluoromethyl)pyridin-2-amine]	1.1 µM	>100 µM
CCc1cccc2cc(O)cc(-c3c(Cl)cc4c(N5CC[C@H]6CC[C@@H](C5)N6)nc(OC[C@@]56CCCN5C[C@H](F)C6)nc4c3F)c12 (single isomer, unassigned) [Example 8-1]	0.04 µM	5.7 µM
Oc1cc(-c2c(Cl)cc3c(N4CC[C@H]5CC[C@@H](C4)N5)nc(OC[C@]45CCCN4C[C@@H](F)C5)nc3c2F)c2ccccc2c1 (single isomer, unassigned) [Example 8-10]	0.50 µM	14.2 µM

Other lines, results leading:

KRASG12D Nucleotide Exchange Assay (IC50, µM) (KRAS G12D [1])	KRASG12D RAF Disruption Assay (IC50, µM) (KRAS G12D [2])	SMILES
0.2 µM	>100 µM	Cc1cc(N)nc(-c2c(Cl)cc3c(N4CC[C@H]5CC[C@@H](C4)N5)nc(OC[C@@]45CCCN4C[C@@H](OC(F)F)C5)nc3c2F)c1C(F)(F)F (single isomer, unassigned) [Example 10-6]
<0.002 µM	2.87 µM	Cc1cc(N)nc(-c2c(Cl)cc3c(N4CC[C@H]5CC[C@@H](C4)N5)nc(OC[C@@]45CCCN4C[C@@H](F)C5)nc3c2F)c1C(F)(F)F [Example 5, 6-(2-{[(2S,7aS)-2-fluoro-hexahydro-1H-pyrrolizin-7a-yl]methoxy}-6-chloro-4-[(1S,6R)-3,9-diazabicyclo[4.2.1]nonan-3-yl]-8-fluoroquinazolin-7-yl)-4-methyl-5-(trifluoromethyl)pyridin-2-amine]
0.04 µM	6.19 µM	Cc1cc(N)nc(-c2c(Cl)cc3c(N4CCC5CCC(C4)N5)nc(OC[C@@H]4CCCN4C)nc3c2F)c1C(F)(F)F (stereo partly drawn) [Example 2-1, 6-(6-chloro-4-{3,9-diazabicyclo[4.2.1]nonan-3-yl}-8-fluoro-2-{[(2S)-1-methylpyrrolidin-2-yl]methoxy}quinazolin-7-yl)-4-methyl-5-(trifluoromethyl)pyridin-2-amine]
0.01 µM	0.22 µM	Cc1cc(N)nc(-c2c(Cl)cc3c(N4CC[C@H]5CC[C@@H](C4)N5)nc(OC[C@@]45C[C@@H](F)CN4CC4(CC4)C5)nc3c2F)c1C(F)(F)F [Example 13-1, 6-(2-{[(6′R, 7′aR)-6′-fluoro-hexahydrospiro[cyclopropane-1,2′-pyrrolizine]-7′a-yl]methoxy}-6-chloro-4-[(1S,6R)-3,9-diazabicyclo[4.2.1]nonan-3-yl]-8-fluoroquinazolin-7-yl)-4-methyl-5-(trifluoromethyl)pyridin-2-amine]
